Columns and labels:
Assay in all cases: biochemical
Parameters in all cases: KINOMEscan competition binding panel (Eurofins DiscoverX), single concentration, percent inhibition
Conditions in all cases: read-out: 15 at 1 µM % inhibition
AAK1 = AAK1 (Homo sapiens, UniProt Q2M2I8)
Description: (§1) KinomeScan® Assay on 7 and 15 was performed as previously described by EuroFins DiscoverX [24]. GSK114 (7) and 15 were submitted for a KINOMEscan® assay to explore the selectivity profile across >400 human kinases at a compound concentration of 1 µM. […] GSK114 (7) is a narrow-spectrum TNNi3K inhibitor but has some potent off-targets including GAK which has been previously reported for this chemotype. […] If utilized together this set of compounds could be useful to investigate TNNi3K biology.

[1] = biological target: T1, ABL1(F317I)-phosphorylated (Homo sapiens, UniProt P00519, F317I)
T1 construct: phosphorylated
Description: as §1

[2] = biological target: T2, ABL1(M351T)-phosphorylated (Homo sapiens, UniProt P00519, M351T)
T2 construct: phosphorylated
Description: as §1

AURKB = AURKB (Homo sapiens, UniProt Q96GD4)
Description: as §1

AXL = AXL (Homo sapiens, UniProt P30530)
Description: as §1

BMX = BMX (Homo sapiens, UniProt P51813)
Description: as §1

CAMK1 = CAMK1 (Homo sapiens, UniProt Q14012)
Description: as §1

CAMK1D = CAMK1D (Homo sapiens, UniProt Q8IU85)
Description: as §1

CDKL1 = CDKL1 (Homo sapiens, UniProt Q00532)
Description: as §1

DCAMKL1 = biological target: T3, DCAMKL1 (Homo sapiens, UniProt O15075)
T3 construct: gene DCLK1
Description: as §1

EGFR(G719S) = EGFR(G719S) (Homo sapiens, UniProt P00533, G719S)
Chain of EGFR(G719S) (P00533 whole entry G719S): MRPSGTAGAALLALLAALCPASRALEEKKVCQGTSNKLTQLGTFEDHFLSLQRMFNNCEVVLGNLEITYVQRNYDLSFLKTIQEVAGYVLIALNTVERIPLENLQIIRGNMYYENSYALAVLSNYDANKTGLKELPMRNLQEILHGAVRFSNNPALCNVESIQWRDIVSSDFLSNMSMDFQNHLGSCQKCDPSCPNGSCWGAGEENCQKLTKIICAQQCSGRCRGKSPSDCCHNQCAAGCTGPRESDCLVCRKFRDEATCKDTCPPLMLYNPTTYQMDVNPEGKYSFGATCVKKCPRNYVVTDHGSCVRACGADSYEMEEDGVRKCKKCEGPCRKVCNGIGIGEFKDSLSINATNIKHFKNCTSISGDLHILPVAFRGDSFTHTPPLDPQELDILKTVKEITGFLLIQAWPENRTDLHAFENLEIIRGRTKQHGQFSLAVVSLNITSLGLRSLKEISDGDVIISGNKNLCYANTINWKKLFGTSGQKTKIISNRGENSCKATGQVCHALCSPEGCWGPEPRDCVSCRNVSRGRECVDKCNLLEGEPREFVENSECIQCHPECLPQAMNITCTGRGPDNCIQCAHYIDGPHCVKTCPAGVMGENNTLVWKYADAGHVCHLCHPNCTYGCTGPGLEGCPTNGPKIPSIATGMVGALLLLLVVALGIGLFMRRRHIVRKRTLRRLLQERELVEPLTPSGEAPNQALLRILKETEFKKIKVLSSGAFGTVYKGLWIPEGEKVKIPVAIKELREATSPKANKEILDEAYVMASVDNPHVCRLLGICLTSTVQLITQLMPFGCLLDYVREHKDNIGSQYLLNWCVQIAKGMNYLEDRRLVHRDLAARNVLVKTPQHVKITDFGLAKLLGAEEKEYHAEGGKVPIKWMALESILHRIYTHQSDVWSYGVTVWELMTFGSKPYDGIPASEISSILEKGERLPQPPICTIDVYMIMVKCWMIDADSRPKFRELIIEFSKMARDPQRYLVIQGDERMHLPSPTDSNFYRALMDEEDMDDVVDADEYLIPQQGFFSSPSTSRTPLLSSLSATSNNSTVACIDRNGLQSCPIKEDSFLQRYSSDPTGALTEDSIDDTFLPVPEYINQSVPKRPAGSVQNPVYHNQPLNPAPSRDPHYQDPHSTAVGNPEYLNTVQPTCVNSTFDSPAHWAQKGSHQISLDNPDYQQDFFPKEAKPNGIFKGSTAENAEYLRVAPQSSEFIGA
Description: as §1

IGF1R = IGF1R (Homo sapiens, UniProt P08069)
Chain of IGF1R (P08069 whole entry): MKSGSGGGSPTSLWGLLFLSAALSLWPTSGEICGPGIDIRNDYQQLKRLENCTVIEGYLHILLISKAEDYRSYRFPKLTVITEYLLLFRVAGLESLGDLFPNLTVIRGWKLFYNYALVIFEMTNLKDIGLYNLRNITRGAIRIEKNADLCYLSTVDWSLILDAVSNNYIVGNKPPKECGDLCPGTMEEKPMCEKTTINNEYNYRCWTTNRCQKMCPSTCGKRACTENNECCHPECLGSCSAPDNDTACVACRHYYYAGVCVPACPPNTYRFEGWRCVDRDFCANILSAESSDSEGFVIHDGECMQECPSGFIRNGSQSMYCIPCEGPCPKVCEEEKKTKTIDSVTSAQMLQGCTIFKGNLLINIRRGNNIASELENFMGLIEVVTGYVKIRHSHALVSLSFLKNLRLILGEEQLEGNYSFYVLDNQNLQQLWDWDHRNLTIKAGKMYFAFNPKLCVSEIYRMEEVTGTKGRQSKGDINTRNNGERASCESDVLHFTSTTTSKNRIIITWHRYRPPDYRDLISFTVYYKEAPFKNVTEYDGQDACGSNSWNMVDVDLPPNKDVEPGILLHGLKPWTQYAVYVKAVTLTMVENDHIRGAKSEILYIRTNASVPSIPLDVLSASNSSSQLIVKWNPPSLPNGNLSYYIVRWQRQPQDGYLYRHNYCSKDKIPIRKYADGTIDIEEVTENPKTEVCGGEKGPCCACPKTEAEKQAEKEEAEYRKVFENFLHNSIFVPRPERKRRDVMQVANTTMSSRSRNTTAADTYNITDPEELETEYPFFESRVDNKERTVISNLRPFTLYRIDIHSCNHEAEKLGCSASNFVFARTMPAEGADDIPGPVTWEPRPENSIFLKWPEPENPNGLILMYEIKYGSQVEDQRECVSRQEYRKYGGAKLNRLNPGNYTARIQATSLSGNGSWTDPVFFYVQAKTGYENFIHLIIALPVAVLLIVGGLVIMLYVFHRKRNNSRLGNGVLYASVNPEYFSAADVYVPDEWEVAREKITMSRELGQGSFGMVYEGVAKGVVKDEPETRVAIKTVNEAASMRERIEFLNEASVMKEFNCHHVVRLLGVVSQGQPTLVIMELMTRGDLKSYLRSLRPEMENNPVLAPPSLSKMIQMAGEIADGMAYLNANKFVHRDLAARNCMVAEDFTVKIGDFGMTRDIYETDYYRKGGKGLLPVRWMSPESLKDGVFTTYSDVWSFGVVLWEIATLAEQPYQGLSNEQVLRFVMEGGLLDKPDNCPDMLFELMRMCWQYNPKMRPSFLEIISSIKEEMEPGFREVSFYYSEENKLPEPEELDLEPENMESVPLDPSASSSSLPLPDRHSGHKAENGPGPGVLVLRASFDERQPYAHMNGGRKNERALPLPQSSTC
Description: as §1

JNK1 = biological target: T4, JNK1 (Homo sapiens, UniProt P45983)
T4 construct: gene MAPK8
Description: as §1

MAP4K2 = MAP4K2 (Homo sapiens, UniProt Q12851)
Description: as §1

MAP4K5 = MAP4K5 (Homo sapiens, UniProt Q9Y4K4)
Description: as §1

MLK2 = biological target: T5, MLK2 (Homo sapiens, UniProt Q02779)
T5 construct: gene MAP3K10
Description: as §1

NEK6 = NEK6 (Homo sapiens, UniProt Q9HC98)
Description: as §1

OSR1 = biological target: T6, OSR1 (Homo sapiens, UniProt O95747)
T6 construct: gene OXSR1
T6 sequence (O95747 whole entry): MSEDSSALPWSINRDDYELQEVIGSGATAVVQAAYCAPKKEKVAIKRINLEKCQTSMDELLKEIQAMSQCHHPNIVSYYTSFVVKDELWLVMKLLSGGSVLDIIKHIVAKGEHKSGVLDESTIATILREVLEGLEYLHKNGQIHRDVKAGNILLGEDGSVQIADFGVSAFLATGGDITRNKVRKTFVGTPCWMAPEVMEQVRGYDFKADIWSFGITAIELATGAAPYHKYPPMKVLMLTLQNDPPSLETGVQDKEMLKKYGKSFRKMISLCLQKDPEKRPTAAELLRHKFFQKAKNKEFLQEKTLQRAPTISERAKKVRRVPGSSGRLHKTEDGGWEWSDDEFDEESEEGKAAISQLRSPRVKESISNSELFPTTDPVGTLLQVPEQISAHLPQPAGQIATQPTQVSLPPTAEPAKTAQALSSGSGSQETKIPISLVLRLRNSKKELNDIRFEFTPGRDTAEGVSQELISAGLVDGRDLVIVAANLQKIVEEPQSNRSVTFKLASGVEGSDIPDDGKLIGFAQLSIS
Description: as §1

PCTK2 = biological target: T7, PCTK2 (Homo sapiens, UniProt Q00537)
T7 construct: gene CDK17
Description: as §1

PRKG2 = PRKG2 (Homo sapiens, UniProt Q13237)
Description: as §1

[3] = biological target: T8, RSK3(Kin.Dom.2-C-terminal) (Homo sapiens, UniProt Q15349)
T8 construct: gene RPS6KA2; Kin.Dom.2-C-terminal
Description: as §1

TLK2 = TLK2 (Homo sapiens, UniProt Q86UE8)
Description: as §1

VPS34 = biological target: T9, VPS34 (Homo sapiens, UniProt Q8NEB9)
T9 construct: gene PIK3C3
T9 sequence (Q8NEB9 whole entry): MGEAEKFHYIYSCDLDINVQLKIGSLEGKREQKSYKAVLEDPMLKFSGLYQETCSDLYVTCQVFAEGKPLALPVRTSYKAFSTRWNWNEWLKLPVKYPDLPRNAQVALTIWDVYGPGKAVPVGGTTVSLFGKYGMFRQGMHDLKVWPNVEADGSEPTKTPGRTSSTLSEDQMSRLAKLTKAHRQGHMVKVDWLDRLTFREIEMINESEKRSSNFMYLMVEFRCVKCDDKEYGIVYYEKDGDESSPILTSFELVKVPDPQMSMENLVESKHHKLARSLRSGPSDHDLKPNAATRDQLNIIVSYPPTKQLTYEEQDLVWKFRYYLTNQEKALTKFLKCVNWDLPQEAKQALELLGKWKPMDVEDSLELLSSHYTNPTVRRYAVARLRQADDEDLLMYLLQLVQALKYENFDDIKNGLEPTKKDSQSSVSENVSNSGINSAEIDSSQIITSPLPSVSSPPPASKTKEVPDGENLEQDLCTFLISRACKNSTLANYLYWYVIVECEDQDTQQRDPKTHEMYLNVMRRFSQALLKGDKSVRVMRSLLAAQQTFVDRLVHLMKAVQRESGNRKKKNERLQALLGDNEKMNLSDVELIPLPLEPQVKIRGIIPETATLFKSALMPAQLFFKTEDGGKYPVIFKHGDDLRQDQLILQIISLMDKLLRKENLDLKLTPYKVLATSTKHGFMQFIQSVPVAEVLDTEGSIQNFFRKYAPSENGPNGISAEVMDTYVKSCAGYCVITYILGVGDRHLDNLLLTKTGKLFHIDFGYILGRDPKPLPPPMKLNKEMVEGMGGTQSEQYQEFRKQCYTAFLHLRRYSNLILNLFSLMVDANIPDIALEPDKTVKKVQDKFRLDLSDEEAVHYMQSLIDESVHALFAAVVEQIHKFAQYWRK
Description: as §1

YES = biological target: T10, YES (Homo sapiens, UniProt P07947)
T10 construct: gene YES1
Description: as §1

Chain of AAK1 (Q2M2I8 whole entry): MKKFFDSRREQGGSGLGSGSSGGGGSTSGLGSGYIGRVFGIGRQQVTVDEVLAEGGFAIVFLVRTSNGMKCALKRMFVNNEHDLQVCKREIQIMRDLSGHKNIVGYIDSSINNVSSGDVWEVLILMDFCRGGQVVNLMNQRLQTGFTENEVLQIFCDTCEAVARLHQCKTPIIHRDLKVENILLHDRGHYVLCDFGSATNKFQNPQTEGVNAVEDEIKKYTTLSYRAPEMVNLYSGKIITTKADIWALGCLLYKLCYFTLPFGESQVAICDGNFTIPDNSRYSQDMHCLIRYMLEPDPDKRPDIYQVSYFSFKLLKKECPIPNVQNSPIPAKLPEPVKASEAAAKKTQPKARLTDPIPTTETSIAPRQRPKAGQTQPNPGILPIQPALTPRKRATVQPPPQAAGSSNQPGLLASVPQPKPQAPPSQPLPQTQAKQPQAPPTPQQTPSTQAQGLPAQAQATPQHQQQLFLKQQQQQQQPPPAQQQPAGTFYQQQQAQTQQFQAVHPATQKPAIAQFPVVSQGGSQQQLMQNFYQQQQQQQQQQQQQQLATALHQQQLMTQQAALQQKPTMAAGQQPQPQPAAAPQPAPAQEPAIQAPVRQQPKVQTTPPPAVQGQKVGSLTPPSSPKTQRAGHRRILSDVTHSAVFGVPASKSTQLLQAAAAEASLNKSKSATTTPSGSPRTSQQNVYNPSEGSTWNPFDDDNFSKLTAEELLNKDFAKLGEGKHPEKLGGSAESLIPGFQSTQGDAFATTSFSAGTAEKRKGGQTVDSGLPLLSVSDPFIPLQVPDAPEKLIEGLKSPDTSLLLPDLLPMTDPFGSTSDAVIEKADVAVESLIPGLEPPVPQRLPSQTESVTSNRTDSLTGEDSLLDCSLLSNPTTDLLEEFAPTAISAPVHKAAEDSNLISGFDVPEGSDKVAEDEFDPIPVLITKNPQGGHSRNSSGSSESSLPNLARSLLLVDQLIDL

inhibition at 1 µM (AAK1): 4%
inhibition at 1 µM [1]: 22%
inhibition at 1 µM [2]: 0%
inhibition at 1 µM (AURKB): 3%
inhibition at 1 µM (AXL): 9%
inhibition at 1 µM (BMX): 10%
inhibition at 1 µM (CAMK1): 0%
inhibition at 1 µM (CAMK1D): 0%
inhibition at 1 µM (CDKL1): 2%
inhibition at 1 µM (DCAMKL1): 9%
inhibition at 1 µM (EGFR(G719S)): 0%
inhibition at 1 µM (IGF1R): 0%
inhibition at 1 µM (JNK1): 14%
inhibition at 1 µM (MAP4K2): 3%
inhibition at 1 µM (MAP4K5): 3%
inhibition at 1 µM (MLK2): 0%
inhibition at 1 µM (NEK6): 0%
inhibition at 1 µM (OSR1): 42%
inhibition at 1 µM (PCTK2): 0%
inhibition at 1 µM (PRKG2): 21%
inhibition at 1 µM [3]: 0%
inhibition at 1 µM (TLK2): 0%
inhibition at 1 µM (VPS34): 25%
inhibition at 1 µM (YES): 0%
SMILES: CNS(=O)(=O)c1ccc(N(C)C)c(Nc2nc(C)nc3cc(OC)c(OC)cc23)c1 [compound 15, 3-((6,7-dimethoxy-2-methylquinazolin-4-yl)amino)-4-(dimethylamino)-N-methylbenzenesulfonamide]

From publication PMC7180948, “New Insights into 4-Anilinoquinazolines as Inhibitors of Cardiac Troponin I–Interacting Kinase (TNNi3K)” (Molecules, 2020)
